Experimental data from publication PMC7241536, “Design, synthesis and in vitro antiproliferative activity of new thiazolidinedione-1,3,4-oxadiazole hybrids as thymidylate synthase inhibitors” (Journal of Enzyme Inhibition and Medicinal Chemistry, 2020).
Where two headings read alike, the source gives them in different places.

Tests used:
MCF-7 (breast cancer) = experiment: MTT cytotoxicity assay, MCF-7; format: cell-based, human; conditions: for IC50: MTT, 72 h, breast cancer cell line MCF-7, read-out: IC50 against MCF-7; for folds activity of 5-FU against MCF-7: relative to 5-fluorouracil
Protocol: (§1) The methods are provided in Supplementary material.
(§2) The newly synthesised compounds 7–21 were tested for their cytotoxicity against human cancer cell line viz. breast and colorectal using MTT assay.
(§3) Two human cancer cell lines, MCF-7 and HCT-116 were cultured in Dulbecco’s Modified Eagles Medium (DMEM) high glucose medium which was supplemented with 10% fetal bovine serum (FBS), 10,000 units/mL penicillin/streptomycin (Pen/Strep) and 1% glutamine). The above cell lines were cultured in 75 cm2 flasks and maintained at 37 °C in an incubator humidified with 5% CO2. The cell culture was performed using aseptic techniques in a Class II […]
(§4) Breast MCF-7 and colorectal HCT-116 cancer cells were added at (1 × 10^5 cells/mL) into a 96 well plate with three replicates and incubated overnight for attachment at 37°C, in 5% CO2 humidified atmosphere. Drug concentrations at 6 serial dilutions (100, 50, 10, 1, 0.5 and 0.1 μM) were added in triplicates and incubated at 37°C, 5% CO2 for 72 h. Drugs were dissolved in 0.1 % DMSO as a vehicle. Untreated cells were used as control. 5-fluorouracil (5-FU) was used as a positive control. Thereafter, each well for each time point was removed and replaced with […] of full medium containing 10% of 3-(4,5- dimethylthiaxolyl-2)-2,5-diphenyltetrazoliumbromide (MTT) (10 mg/mL). Media was removed and 100µl of DMSO was added and cells were incubated for further 5 mins at 37 °C and 5% CO2. Plates were quantified using the SpectraMax M3 plate reader at 570 nm. The percentage inhibition was calculated as 100–[(Mean OD of treated cell × 100)/Mean OD of vehicle treated cells (DMSO)]. All the experiments were repeated at least three independent experiments. […]

[1] = test system: HCT-116 (colorectal cancer); experiment: MTT cytotoxicity assay, HCT-116; format: cell-based, human; conditions: for IC50: MTT, 72 h, colorectal cancer cell line HCT-116, read-out: IC50 against HCT-116; for folds cytotoxicity compared to 5-FU against HCT-116: relative to 5-fluorouracil
Protocol: as §1, §2, §3, §4

[2] = target: thymidylate synthase (TS) (Homo sapiens, UniProt P04818); experiment: In vitro thymidylate synthase assay (spectrophotometric, 340 nm); format: biochemical
thymidylate synthase (TS), sequence (P04818 whole entry): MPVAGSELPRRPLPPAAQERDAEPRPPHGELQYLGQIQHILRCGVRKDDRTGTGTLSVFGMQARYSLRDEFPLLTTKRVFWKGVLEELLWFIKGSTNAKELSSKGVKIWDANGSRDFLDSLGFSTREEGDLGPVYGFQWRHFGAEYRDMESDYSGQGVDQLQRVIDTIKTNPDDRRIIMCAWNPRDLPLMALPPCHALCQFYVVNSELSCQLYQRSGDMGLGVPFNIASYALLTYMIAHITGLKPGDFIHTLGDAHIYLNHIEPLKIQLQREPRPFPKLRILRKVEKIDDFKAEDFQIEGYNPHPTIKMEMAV
Protocol: TS activity was performed according to the method as described by Wahab and Friedkin[27] with a slight modification according to Santi.[28] (Refer to Supplementary material for the method.) […]
In vitro Thymidylate synthase assay
It involves a mixture containing 2-mercaptoethanol (0.1 M), (6R,S)-tetrahydrofolate (0.0003 M), formaldehyde (0.012 M), MgCl2 (0.02 M), dUMP (0.001 M), TrisHCl (0.04 M), and NaEDTA […]
(0.00075 M). This assay was done spectrophotometrically at 30° C and pH 7.4. The reaction was initiated by the addition of an amount of enzyme giving a change in absorbance at 340 nm of 0.016/min in the absence of inhibitor. The percent inhibition was determined at a minimum of four inhibitor concentrations within 20% of the 50% point. The standard deviations for […]

[3] = 30 °C, pH 7.4, read-out: TS inhibition IC50

| SMILES | melting point | IC50 (MCF-7 (breast cancer); Homo sapiens, MCF7, 72 h) | IC50 ([1]; Homo sapiens, HCT-116, 72 h) | further results |
| --- | --- | --- | --- | --- |
| O=c1[nH]cc(F)c(=O)[nH]1 [Compound 5-FU, 5-fluorouracil, reference compound] | – | 34.8 µM | 40.5 µM | – |
| Nc1nc2[nH]cc(CCc3ccc(C(=O)N[C@@H](CCC(=O)O)C(=O)O)cc3)c2c(=O)[nH]1 [PTX, Pemetrexed, reference compound] | – | – | – | IC50 [2]: 8.2 µM |
| COc1ccc(/C=C2\SC(=O)N(Cc3nnc(-c4cccc(C)c4)o3)C2=O)cc1 [Compound 15, (Z)-5-(4-methoxybenzylidene)-3-((5-m-tolyl-1,3,4-oxadiazol-2-yl)methyl)thiazolidine-2,4-dione] | – | 47.8 µM | 39.6 µM | IC50 [2, 3]: 7.9 µM |
| COc1ccc(/C=C2\SC(=O)N(Cc3nnc(-c4ccc(Br)cc4)o3)C2=O)cc1 [Compound 10, (Z)-5-(4-methoxybenzylidene)-3-((5-(4-bromophenyl)-1,3,4-oxadiazol-2-yl)methyl)thiazolidine-2,4-dione] | – | 7.87 µM | 16.1 µM | folds activity of 5-FU against MCF-7 (MCF-7 (breast cancer)): 4.4 folds; IC50 [2, 3]: 2.21 µM; folds cytotoxicity compared to 5-FU against HCT-116 [1]: 2.5 folds |
| COc1ccc(/C=C2\SC(=O)N(Cc3nnc(-c4ccccc4O)o3)C2=O)cc1 [Compound 12, (Z)-5-(4-methoxybenzylidene)-3-((5-(2-hydroxyphenyl)-1,3,4-oxadiazol-2-yl)methyl)thiazol idine-2,4-dione] | – | 56.3 µM | 58.6 µM | – |
| COc1ccc(/C=C2\SC(=O)N(Cc3nnc(-c4ccccc4Cl)o3)C2=O)cc1 [Compound 9, (Z)-5-(4-methoxybenzylidene)-3-((5-(2-chlorophenyl)-1,3,4-oxadiazol-2-yl)methyl)thiazolidine-2,4-dione] | 276 to 277 °C | 7.47 µM | 12.8 µM | IC50 (MCF-7 (breast cancer)): 7.74 µM; folds activity of 5-FU against MCF-7 (MCF-7 (breast cancer)): 4.5 folds; IC50 [2, 3]: 1.67 µM; folds cytotoxicity compared to 5-FU against HCT-116 [1]: 3.1 folds |
| COc1ccc(/C=C2\SC(=O)N(Cc3nnc(-c4cccc(Cl)c4)o3)C2=O)cc1 [Compound 8, (Z)-5-(4-methoxybenzylidene)-3-((5-(3-chlorophenyl)-1,3,4-oxadiazol-2-yl)methyl)thiazolidine-2,4-dione] | – | 56 µM | 56.8 µM | – |
| COc1ccc(/C=C2\SC(=O)N(Cc3nnc(-c4ccccc4)o3)C2=O)cc1 [Compound 7, (Z)-5-(4-methoxybenzylidene)-3-((5-phenyl-1,3,4-oxadiazol-2-yl)methyl)thiazolidine-2,4-dione] | – | 53.5 µM | 57.3 µM | – |
| COc1ccc(/C=C2\SC(=O)N(Cc3nnc(-c4ccccc4C)o3)C2=O)cc1 [Compound 13, (Z)-5-(4-methoxybenzylidene)-3-((5-o-tolyl-1,3,4-oxadiazol-2-yl)methyl)thiazolidine-2,4-dione] | – | 56.3 µM | 58.6 µM | – |
| COc1ccc(/C=C2\SC(=O)N(Cc3nnc(-c4cccc([N+](=O)[O-])c4)o3)C2=O)cc1 [Compound 14, (Z)-5-(4-methoxybenzylidene)-3-((5-(3-nitrophenyl)-1,3,4-oxadiazol-2-yl)methyl)thiazolidine-2,4-dione] | – | 43.4 µM | 42.2 µM | IC50 [2, 3]: 9.4 µM; IC50 [1]: 42.2 µM |

Further lines, with some results ahead:

| melting point | SMILES | IC50 (MCF-7 (breast cancer); Homo sapiens, MCF7, 72 h) | IC50 ([1]; Homo sapiens, HCT-116, 72 h) | further results |
| --- | --- | --- | --- | --- |
| 161 to 162 °C | COc1ccc(/C=C2\SC(=O)N(Cc3nnc(COc4cccc5cccnc45)o3)C2=O)cc1 [Compound 21, (Z)-5-(4-methoxybenzylidene)-3-((5-((quinolin-8-yloxy)methyl)-1,3,4-oxadiazol-2-yl)methyl) thiazolidine-2,4-dione] | 62 µM | 63.1 µM | – |
| 210 to 211 °C | COc1ccc(/C=C2\SC(=O)N(Cc3nnc(COc4ccc5ccccc5c4)o3)C2=O)cc1 [Compound 20, (Z)-5-(4-methoxybenzylidene)-3-((5-((naphthalen-3-yloxy)methyl)-1,3,4-oxadiazol-2-yl)methyl) thiazolidine-2,4-dione] | > 100 µM | > 100 µM | – |
| 152 to 153 °C | COc1ccc(/C=C2\SC(=O)N(Cc3nnc(COc4ccccc4)o3)C2=O)cc1 [Compound 16, (Z)-5-(4-methoxybenzylidene)-3-((5-(phenoxymethyl)-1,3,4-oxadiazol-2-yl)methyl)thiazolidine-2,4-dione] | 58.4 µM | 67.1 µM | – |
| 209 to 210 °C | COc1ccc(/C=C2\SC(=O)N(Cc3nnc(COc4cccc(Cl)c4Cl)o3)C2=O)cc1 [Compound 18, (Z)-3-((5-((2,3-dichlorophenoxy)methyl)-1,3,4-oxadiazol-2-yl)methyl)-5-(4-methoxybenzylidene)thiazolidine-2,4-dione] | > 100 µM | > 100 µM | – |
| 142 to 143 °C | COc1ccc(/C=C2\SC(=O)N(Cc3nnc(COc4cccc(Cl)c4)o3)C2=O)cc1 [Compound 17, (Z)-3-((5-((3-chlorophenoxy)methyl)-1,3,4-oxadiazol-2-yl)methyl)-5-(4-methoxybenzylidene)thiazolidine-2,4-dione] | 65.2 µM | 55.5 µM | – |
| 220 to 221 °C | COc1ccc(/C=C2\SC(=O)N(Cc3nnc(COc4cccc5ccccc45)o3)C2=O)cc1 [Compound 19, (Z)-5-(4-methoxybenzylidene)-3-((5-((naphthalen-1-yloxy)methyl)-1,3,4-oxadiazol-2-yl)methyl) thiazolidine-2,4-dione] | 61.6 µM | 69.5 µM | – |
| 197 to 198 °C | COc1ccc(/C=C2\SC(=O)N(Cc3nnc(-c4ccc(C)cc4)o3)C2=O)cc1 [Compound 11, (Z)-5-(4-methoxybenzylidene)-3-((5-p-tolyl-1,3,4-oxadiazol-2-yl)methyl)thiazolidine-2,4-dione] | 58.4 µM | 68.1 µM | – |
